In patent US20250195553A1, “Use of Genipin-1-B-D-Gentiobioside in Preparation of Drug” (Guizhou Bailing Group Pharmaceutical Co., Ltd., priority 2023, published 2025):
Read-outs that look alike come from different tables or passages of the source. Marks after values point to notes of the source that are not given here.

Columns and labels:
Human Coronavirus 229E = assay: Cytokines in lung tissue of mice infected with human coronavirus 229E (ELISA); assay type: in vivo; conditions: 4 days
Protocol: Seventy Institute of Cancer Research Mouse (ICR) mice were randomly divided into seven groups based on body weight: a normal control group, a model control group, a chloroquine phosphate control group, and four Genipin-1-β-D-gentiobioside dosage groups (75 mg/ml, 37.5 mg/ml, 18.75 mg/ml, and 9.375 mg/ml), with ten mice in each group. Except for the normal control group, the other mice were lightly anesthetized with isoflurane and infected intranasally with 50 μl of 100 TCID50 coronavirus strain 229E or OC43. The infection was repeated every other day. Nebulization administration began on the same day as the first infection, with a flow rate of 7.5 L/min. The four Genipin-1-β-D-gentiobioside dosage groups were nebulized for 25 minutes each. The chloroquine phosphate control group was administered 0.2 ml/10 g body weight by gavage once daily for four consecutive days. The normal control group and the model control group were nebulized with distilled water for 25 minutes under the same conditions. On the fifth day, the mice were dissected, and the following indicators were measured:
(2) The left lung lobes were used for viral nucleic acid detection, while the right lung lobes were used for the quantification of inflammatory factors: IL-6, IL-10, and TNF-α.
The inhalation administration samples mentioned above were used. The weight of the lung tissue was measured, and an appropriate amount of physiological saline was added to make a 10% tissue homogenate. After homogenizing the tissue using a high-throughput tissue grinder, it was centrifuged at 4° C. and 3000 rpm for 10 minutes using a low-temperature high-speed centrifuge. The supernatant was then aspirated, aliquotted, and stored at −80° C. for future use, avoiding repeated freeze-thaw cycles. For detection, the absorbance at 450 nm was measured using a microplate reader according to the kit instructions.

[1] = tested on: Mycoplasma Pneumoniae (MP); assay: Pathological changes in lung tissue of MP-infected mice (HE staining); assay type: in vivo, BALB/C mice; set-up: Alveolitis Lesion Degree / Bronchial Damage / Histological Damage Degree: scale not given here
Protocol: Fifty BALB/C mice, weighing 14±1 g, were randomly divided into five groups: a normal control group, a model control group, an azithromycin control group, a high-dose Genipin-1-β-D-gentiobioside group (75 mg/ml) with 15-minute nebulization, and a low-dose Genipin-1-β-D-gentiobioside group (37.5 mg/ml) with 15-minute nebulization. Each group consisted of 10 mice, with an equal number of males and females. Except for the normal control group, all mice were lightly anesthetized with isoflurane and infected intranasally with Mycoplasma Pneumoniae (50 μl per mouse) for three consecutive days. On the day of infection, each treatment group received nebulized medication once daily for four consecutive days, while the normal control group and model control group received nebulized saline under the same conditions. On the fifth day, the mice were weighed, sacrificed by cervical dislocation, and their lung tissues were dissected, weighed, and used to calculate the lung index and lung index inhibition rate; measure the levels of inflammatory factors in the lung tissue; measure the serum CRP levels; and conduct pathological examinations of the lung tissue. The results were statistically analyzed using the t-test for intergroup comparisons.
2.4 Pathological Changes in Mouse Lung Tissue (HE Staining Method)

[2] = tested on: Human Coronavirus OC43 (HCoV-OC43); assay type: in vivo; conditions: 4 days
SARS-CoV-2 = assay: Protective effect against death in SARS-CoV-2 infected mice; assay type: in vivo, hACE2 transgenic C57BL/6 mice; conditions: for Number of Survivors / Number of Deaths: 8 mice; for Number of Deaths: 5-day
Protocol: 1.1 Test Drug: Genipin-1-β-D-gentiobioside. […] Dosage for mice: 37.5 mg/kg and 75 mg/kg, administered by intraperitoneal injection once daily for 5 consecutive days.
1.2 Experimental Animals: human angiotensin-converting enzyme 2 (hACE2) transgenic C57BL/6 mice, aged 6˜7 weeks, weighing 18˜25 g, a total of 32 mice provided by GemPharmatech Co., Ltd., with a license number of SCXK (Su) 2018-008.
2.1 Grouping and Drug Administration: hACE2 transgenic C57BL/6 mice were divided into four groups, namely the blank control group, the SARS-CoV-2 infection group, the Genipin-1-β-D-gentiobioside (37.5 mg/kg) treatment group, and the Genipin-1-β-D-gentiobioside (75 mg/kg) treatment group, with 8 mice in each group. Except for the normal group, which received intranasal administration of Phosphate Buffered Saline (PBS), the other groups were infected with 10^4 Plaque Forming Unit (PFU) of Severe Acute Respiratory Syndrome Coronavirus 2 (SARS-CoV-2) virus via intranasal instillation. Two hours' post-infection, the treatment groups received intraperitoneal injections of the drug once daily for 5 consecutive days. Mouse deaths were recorded daily after infection, and the 5-day mortality rate was calculated. At the end of the experiment, the lung tissues were collected and homogenized for virus titer detection.

[3] = tested on: Lipopolysaccharide (LPS)-induced pneumonia model in mice; assay: LPS-induced pneumonia model in mice, intravenous injection: lung index; assay type: in vivo, ICR mice; conditions: for Lung Index: 6 h after LPS
Protocol: Sixty healthy mice, weighing 18˜20 g, half male and half female, were selected and randomly grouped after stratification by weight; they were divided into a normal control group, a model control group, three Genipin-1-β-D-gentiobioside dose groups (150 mg/kg/d, 75 mg/kg/d, 37.5 mg/kg/d), and a positive control drug Sivelestat Sodium 50 mg/kg/d group, with 10 mice in each group, half male and half female. After grouping, each treatment group was administered intravenously at 20 ml/kg once daily for 2 consecutive days, while the normal control group and model control group were injected with physiological saline. One hour after the second dose, except for the normal control group, the other groups were lightly anesthetized with isoflurane, and a 20 mg/ml LPS physiological saline solution was administered intranasally to the mice at 0.05 ml/mouse to induce the pneumonia model. Six hours after infection, the animals were sacrificed, dissected, and their lungs were removed and weighed to calculate the lung index (lung index=lung weight/body weight×100%).

[4] = High-Dose Group (75 mg/ml nebulization 15 min)
[5] = Low-Dose Group (37.5 mg/ml nebulization 15 min)
[6] = 37.5 mg/kg intraperitoneal once daily 5 days
[7] = 75 mg/kg intraperitoneal once daily 5 days
[8] = 37.5 mg/kg i.v. once daily 2 days
[9] = 75 mg/kg i.v. once daily 2 days
[10] = 150 mg/kg i.v. once daily 2 days

## COC(=O)C1=CO[C@@H](O[C@@H]2O[C@H](CO[C@@H]3O[C@H](CO)[C@@H](O)[C@H](O)[C@H]3O)[C@@H](O)[C@H](O)[C@H]2O)[C@@H]2C(CO)=CC[C@H]12 [Genipin-1-β-D-gentiobioside]
Human Coronavirus 229E; 9.375 mg/ml inhalation
  Cytokine Levels in Lung Tissue IL-6: 98.70 ± 4.56 pg/mL
  Cytokine Levels in Lung Tissue IL-10: 331.34 ± 28.00 pg/mL
  Cytokine Levels in Lung Tissue TNF-α: 511.16 ± 80.14 pg/mL
Human Coronavirus 229E; 18.75 mg/ml inhalation
  Cytokine Levels in Lung Tissue IL-6: 99.51 ± 5.24 pg/mL
  Cytokine Levels in Lung Tissue IL-10: 330.61 ± 25.07 pg/mL
  Cytokine Levels in Lung Tissue TNF-α: 503.00 ± 56.50 pg/mL
Human Coronavirus 229E; 37.5 mg/ml inhalation
  Cytokine Levels in Lung Tissue IL-6: 98.23 ± 3.42 pg/mL
  Cytokine Levels in Lung Tissue IL-10: 334.12 ± 25.59 pg/mL
  Cytokine Levels in Lung Tissue TNF-α: 513.28 ± 58.74 pg/mL
Human Coronavirus 229E; 75 mg/ml inhalation
  Cytokine Levels in Lung Tissue IL-6: 98.31 ± 2.78 pg/mL
  Cytokine Levels in Lung Tissue IL-10: 341.12 ± 29.07 pg/mL
  Cytokine Levels in Lung Tissue TNF-α: 511.81 ± 51.82 pg/mL
[1]; [4]
  Alveolitis Lesion Degree: 30.40*
  Bronchial Damage: 26.60*
  Histological Damage Degree: 1.50 ± 0.55
  Interstitial Inflammatory Cell Infiltration: 30.60*
[1]; High-Dose Group, HE staining
  Pathological changes of lung tissue compared with the model group: significantly reduced
[1]; [5]
  Alveolitis Lesion Degree: 39.35
  Bronchial Damage: 52.35
  Histological Damage Degree: 1.90 ± 0.39
[1]; Low-Dose Group, HE staining
  Pathological changes (alveolar wall thickening, inflammatory cell infiltration) compared with the model group: significantly reduced
[2]; 9.375 mg/ml inhalation 25 min
  Inhibition Rate (lung index): 49.42%
  Lung Index: 0.79 ± 0.09 g lung weight × 100 g/body weight
[2]; 18.75 mg/ml inhalation 25 min
  Inhibition Rate (lung index): 75.73%
  Lung Index: 0.76 ± 0.04 g lung weight × 100 g/body weight
[2]; 37.5 mg/ml inhalation 25 min
  Inhibition Rate (lung index): 90.30%
  Lung Index: 0.74 ± 0.08 g lung weight × 100 g/body weight
[2]; 75 mg/ml inhalation 25 min
  Inhibition Rate (lung index): 102.88%
  Lung Index: 0.72 ± 0.05 g lung weight × 100 g/body weight
SARS-CoV-2; [6]
  Death Rate: 37.5%
  Survival Rate: 62.5%
  Number of Survivors: 5
  Number of Deaths: 3
SARS-CoV-2; [7]
  Death Rate: 25%
  Survival Rate: 75%
  Number of Survivors: 6
  Number of Deaths: 2
[3]; [8]
  Inhibition Rate (lung index): 48.85
  Lung Index: 0.91 ± 0.09 g/100 g body weight
[3]; [9]
  Inhibition Rate (lung index): 94.65
  Lung Index: 0.85 ± 0.14 g/100 g body weight
[3]; [10]
  Inhibition Rate (lung index): 77.10
  Lung Index: 0.87 ± 0.01 g/100 g body weight
